In patent publication US20130209551A1, “PENTAPEPTIDE DERIVATIVES FOR PROMOTING HAIR GROWTH” (priority 2010, published 2013):
*: point of attachment. Biotin = O=C1N[C@H]2[C@H](CS[C@H]2CCCCC(=O)*)N1

Tested on: hair bulb keratinocytes
Assay: Detection of the hair bulb keratinocyte proliferation (test of Biol. Pharm. Bull., 28(3), 485-489, (2005))
Format: cell-based
Settings: relative to unsubstituted pentapeptide Gly-Pro-Ile-Gly-Ser
From the text: In the test as described in Biol. Pharm.

For “5-[(3aS,4S,6aR)-2-oxo-hexahydro-1H-thieno[3,4-d]imidazol-4-yl]pentanoyl-Gly-Pro-Ile-Gly-Ser-OH (Biotin-GPIGS-OH; SMILES CC[C@H](C)[C@H](NC(=O)[C@@H]1CCCN1C(=O)CNC(=O)CCCC[C@@H]1SC[C@@H]2NC(=O)N[C@@H]21)C(=O)NCC(=O)N[C@@H](CO)C(=O)O) [No. 9]”, the “keratinocyte growth test result, value superior in comparison with the corresponding value for Gly-Pro-Ile-Gly-Ser” value was 53%.
